Reference: the supplement of paper PMC10307832

Experiments:
Assay in all cases: relative viability (nuclei count vs DMSO), 5 days (fraction); higher = more cells survive
RERF-LC-KJ = test system: RERF-LC-KJ
Outline: (§1)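 Relative viability equals treated-well nuclei counts divided by vehicle-well nuclei counts. Counts came from 4× images of lung cancer cell lines grown in 1536-well plates for 5 days after pin-tool dosing on the day after seeding. Dosing used one drug alone or a fixed anchor-drug dose plus five library-drug doses (not always all listed) in √10 steps, and values are medians of duplicate plates.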

A-427 = test system: A-427
Outline: as §1

LOU-NH91 = test system: LOU-NH91
Outline: as §1

NCI-H1650 = test system: NCI-H1650
Outline: as §1

SW 1573 = test system: SW 1573
Outline: as §1

ChaGo-K-1 = test system: ChaGo-K-1
Outline: as §1

NCI-H1734 = test system: NCI-H1734
Outline: as §1

NCI-H2126 = test system: NCI-H2126
Outline: as §1

NCI-H650 = test system: NCI-H650
Outline: as §1

HCC-366 = test system: HCC-366
Outline: as §1

COR-L23 = test system: COR-L23
Outline: as §1

NCI-H441 = test system: NCI-H441
Outline: as §1

O=c1[nH]c2ccccc2n1C1CCN(CCCC(c2ccc(F)cc2)c2ccc(F)cc2)CC1 [Pimozide] + Nc1nc2[nH]cc(CCc3ccc(C(=O)N[C@@H](CCC(=O)O)C(=O)O)cc3)c2c(=O)[nH]1 [Pemetrexed] (partner 0.2 µM) showed a relative viability (RERF-LC-KJ; first compound 2.53 µM) of 0.347, a relative viability (RERF-LC-KJ; first compound 8 µM) of 0.422 and a relative viability (A-427; first compound 0.08 µM) of 0.992. For the same molecule, the relative viability (A-427; first compound 0.253 µM) was 0.979, the relative viability (A-427; first compound 0.8 µM) was 0.928 and the relative viability (A-427; first compound 2.53 µM) was 0.899. It also gave a relative viability (A-427; first compound 8 µM) of 0.845, a relative viability (LOU-NH91; first compound 0.08 µM) of 0.389 and a relative viability (LOU-NH91; first compound 0.253 µM) of 0.474. For the same molecule, the relative viability (LOU-NH91; first compound 0.8 µM) was 0.395, the relative viability (LOU-NH91; first compound 2.53 µM) was 0.384 and the relative viability (LOU-NH91; first compound 8 µM) was 0.384. The relative viability (NCI-H1650; first compound 0.08 µM) was 0.338, the relative viability (NCI-H1650; first compound 0.253 µM) was 0.341 and the relative viability (NCI-H1650; first compound 0.8 µM) was 0.326. The relative viability (NCI-H1650; first compound 2.53 µM) was 0.356, the relative viability (NCI-H1650; first compound 8 µM) was 0.408 and the relative viability (SW 1573; first compound 0.08 µM) was 0.852. It also gave a relative viability (SW 1573; first compound 0.253 µM) of 0.849, a relative viability (SW 1573; first compound 0.8 µM) of 0.831 and a relative viability (SW 1573; first compound 2.53 µM) of 0.665. For the same molecule, the relative viability (SW 1573; first compound 8 µM) was 0.558, the relative viability (ChaGo-K-1; first compound 0.08 µM) was 0.248 and the relative viability (ChaGo-K-1; first compound 0.253 µM) was 0.277. For the same molecule, the relative viability (ChaGo-K-1; first compound 0.8 µM) was 0.245, the relative viability (ChaGo-K-1; first compound 2.53 µM) was 0.267 and the relative viability (ChaGo-K-1; first compound 8 µM) was 0.254. The relative viability (NCI-H1734; first compound 0.08 µM) was 0.401, the relative viability (NCI-H1734; first compound 0.253 µM) was 0.436 and the relative viability (NCI-H1734; first compound 0.8 µM) was 0.401. It also gave a relative viability (NCI-H1734; first compound 2.53 µM) of 0.416, a relative viability (NCI-H1734; first compound 8 µM) of 0.434 and a relative viability (NCI-H2126; first compound 0.08 µM) of 0.65. It also gave a relative viability (NCI-H2126; first compound 0.253 µM) of 0.659, a relative viability (NCI-H2126; first compound 0.8 µM) of 0.637 and a relative viability (NCI-H2126; first compound 2.53 µM) of 0.659. For the same molecule, the relative viability (NCI-H2126; first compound 8 µM) was 0.652, the relative viability (NCI-H650; first compound 0.08 µM) was 0.939 and the relative viability (NCI-H650; first compound 0.253 µM) was 0.936. It also gave a relative viability (NCI-H650; first compound 0.8 µM) of 0.793, a relative viability (NCI-H650; first compound 2.53 µM) of 0.914 and a relative viability (NCI-H650; first compound 8 µM) of 1.02. It also gave a relative viability (HCC-366; first compound 0.08 µM) of 0.166, a relative viability (HCC-366; first compound 0.253 µM) of 0.173 and a relative viability (HCC-366; first compound 0.8 µM) of 0.12. The relative viability (HCC-366; first compound 2.53 µM) was 0.152, the relative viability (HCC-366; first compound 8 µM) was 0.189 and the relative viability (COR-L23; first compound 0.08 µM) was 0.2. It also gave a relative viability (COR-L23; first compound 0.253 µM) of 0.192, a relative viability (COR-L23; first compound 0.8 µM) of 0.19 and a relative viability (COR-L23; first compound 2.53 µM) of 0.192. It also gave a relative viability (COR-L23; first compound 8 µM) of 0.192, a relative viability (NCI-H441; first compound 0.08 µM) of 0.27 and a relative viability (NCI-H441; first compound 0.253 µM) of 0.314. The relative viability (NCI-H441; first compound 0.8 µM) was 0.276, the relative viability (NCI-H441; first compound 2.53 µM) was 0.265 and the relative viability (NCI-H441; first compound 8 µM) was 0.238.
